In article PMC10688702, “The indole motif is essential for the antitrypanosomal activity of N^5-substituted paullones” (PLOS ONE, 2023):
Counter-ions that a name gives are not always drawn.

Key:
[1] = biological target: trypanothione synthetase of L. infantum (LiTryS) (Leishmania infantum, UniProt A4I2Z3); assay: TryS activity screening assay on recombinant LiTryS; assay type: biochemical; conditions: read-out: LiTryS activity [% at 30 μM]
Method: TryS from different trypanosomatids was produced in recombinant form with an N-terminal His-tag. The constructs pET-15b TbTryS and pET-28c(+)LiTryS were used to express TryS of T. b. brucei 427 (MITat1.4, GenBank accession protein id CAC87573.1), and L. infantum JPCM5 (GenBank accession protein id CAM69145.1). E. coli strain BL21 (DE3) served as the expression host. For TbTryS, the cells were cultured in a medium based in Terrific Broth and induction with isopropyl 1-thio-β-D-galactopyranoside (IPTG), while for LiTryS, the cells were cultured in ZYM-5052 auto-induction medium. For a detailed description of the expression, see Benítez et al.. The purification was performed by immobilised metal affinity chromatography in a HisTrap Fast Flow column (GE Healthcare) followed by size exclusion chromatography. […] The fractions containing recombinant TryS with ≥95% purity were pooled and concentrated to >10 mg protein/mL using a 10 kDa cut-off Amicon filter (Millipore, Billerica, CA). Glycerol was added at a final concentration of 40% (v/v). The samples were stored at -80°C. Enzyme purity and activity were assessed by SDS-PAGE (12%) under reducing conditions and by the end-point TryS assay (see TryS activity screening assay), respectively. Protein concentration was determined using the bicinchoninic acid assay with bovine serum albumin as standard. The protocols yielded 25–30 mg TbTryS or LiTryS per litre of culture medium and homogeneous specific activity.
For all TryS, ATP was used at 150 μM because of a high background signal at higher concentrations and Spd fixed at 2 mM, in agreement with the intracellular levels calculated from data reported in the literature for trypanosomatids. GSH was adjusted to 0.05 and 0.25 mM for TbTryS and LiTryS, respectively, to avoid substrate inhibition or to approach physiological concentrations. […] Microtiter plate wells were loaded with 5 μL of the test compound, DMSO (reaction control) or a TryS specific inhibitor (inhibition control) and 40 μL of MM solution. The reactions were then started by adding 5 μL of TryS (2 and 3*10^−5 μmol*min^-1*mL^-1 for LiTryS and TbTryS, respectively) and stopped after 15 min with 200 μL BIOMOL® GREEN reagent (Enzo Life Sciences). The compounds used as inhibition control were added at concentrations that inhibited 50% TryS activity: 30 μM and 150 nM MOL2008 for TbTryS and LiTryS, respectively. Blanks were prepared for each condition by adding 5 μL of screening reaction buffer instead of the enzyme. The TryS activity is calculated as follows: TrySactivity%=A650nmCi-A650nmCiB/A650nmE-A650nmEB*100%
A650 nm Ci is the mean absorbance at 650 nm for the reaction test with compound I (Ci), A650 nm CiB is the mean absorbance at 650 nm for the blank control with compound I (CiB), A650 nm E is the mean absorbance at 650 nm for the reaction control with DMSO (E) and A650 nm EB is the mean absorbance at 650 nm for the blank control with DMSO (EB). The errors were expressed as 2 standard deviations (SD), SD estimated as σ^n−1.

[2] = tested on: L. infantum amastigotes (intracellular, in J774.A1 macrophages); assay: Viability assay for L. infantum amastigotes; assay type: cell-based; conditions: Leishmania infantum, J774.A1, 24 h, read-out: L. infantum amastigote viability [% at 20 μM]
Method: Viability assay for L. infantum amastigotes. L. infantum promastigotes from the reference strain MHOM/MA/67/ITMAP263, stably transfected with a vector encoding a red-shifted luciferase gene (RE9HLUC; Branchini et al.; Benítez et al.) were grown in fresh complete RPMI medium (RPMI basic medium containing 25 mM HEPES, 10% v/v iFBS, 100 U/mL penicillin, 100 μg/mL streptomycin and 15 μg/mL hygromycin B) at 28°C in sealed culture flasks. Metacyclic promastigotes were obtained by a negative selection procedure using peanut agglutinin and used to infect murine macrophages (cell line J774.A1) at a 1:10 ratio for macrophages (5×10^6 cells): parasites (5×10^7 cells). 200 μL of this suspension was added per well to a 96-well culture microplate, which was then incubated at 37°C for 24 h in a 5% CO2/95% air atmosphere incubator. […] The culture microplate was incubated in the CO2 incubator for additional 24 h. Next, the supernatant was removed and the microplate wells were washed with pre-warmed PBS (200 μL). […] All conditions were tested in triplicates and the percentage amastigote viability was calculated as described for infective T. b. brucei, with errors expressed as one SD, estimated as σ^n-1.
A macrophage cell density correction factor based on the incorporation of propidium iodide was calculated and applied to normalise amastigote viability related to host cell density in the well. For a detailed explanation of the protocol, see Benítez et al..

Sequence of trypanothione synthetase of L. infantum (LiTryS) (A4I2Z3 entry or part of it): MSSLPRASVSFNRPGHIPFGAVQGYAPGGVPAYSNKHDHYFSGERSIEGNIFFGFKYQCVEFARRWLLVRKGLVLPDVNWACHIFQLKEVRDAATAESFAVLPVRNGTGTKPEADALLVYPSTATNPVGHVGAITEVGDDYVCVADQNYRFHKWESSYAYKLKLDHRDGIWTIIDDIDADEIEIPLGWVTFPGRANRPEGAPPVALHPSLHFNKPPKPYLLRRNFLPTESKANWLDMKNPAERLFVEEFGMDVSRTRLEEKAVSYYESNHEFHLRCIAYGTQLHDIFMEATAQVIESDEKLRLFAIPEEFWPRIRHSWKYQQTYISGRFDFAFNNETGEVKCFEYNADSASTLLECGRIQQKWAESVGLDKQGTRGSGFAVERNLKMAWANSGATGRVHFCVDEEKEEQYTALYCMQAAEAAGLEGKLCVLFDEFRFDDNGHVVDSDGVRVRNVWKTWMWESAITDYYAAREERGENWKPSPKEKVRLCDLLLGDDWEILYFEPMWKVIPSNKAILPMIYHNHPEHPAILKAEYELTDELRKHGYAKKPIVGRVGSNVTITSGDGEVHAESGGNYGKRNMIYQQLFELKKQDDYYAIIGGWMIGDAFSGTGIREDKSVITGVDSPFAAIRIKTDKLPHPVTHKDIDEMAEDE

SMILES | activity at 30 µM [1] [%] | viability at 20 µM [2] [%]
CC(C)(C)OC(=O)N1CCN(CCNC(=O)CN2C(=O)CCCc3ccccc32)CC1 [2b, tert-Butyl 4-{2-[2-(2-oxo-2,3,4,5-tetrahydro-1H-benzo[b]azepin-1-yl)acetamido]ethyl}piperazine-1-carboxylate] | 91.4 ± 3.1 | 89.5 ± 9.9
CC(C)(C)OC(=O)NCCNC(=O)CN1C(=O)CCCc2ccccc21 [2c, tert-Butyl {2-[2-(2-oxo-2,3,4,5-tetrahydro-1H-benzo[b]azepin-1-yl)acetamido]ethyl}carbamate] | 96.7 ± 7.5 | 
CC(C)(C)OC(=O)N1CCN(C(=O)CN2C(=O)CCCc3ccccc32)CC1 [2d, tert-Butyl 4-[2-(2-oxo-2,3,4,5-tetrahydro-1H-benzo[b]azepin-1-yl)acetyl]piperazine-1-carboxylate] | 108 ± 14.6 | 
CN(CCNC(=O)CN1C(=O)CCCc2ccccc21)C(=O)OC(C)(C)C [2e, tert-Butyl methyl-{2-[2-(2-oxo-2,3,4,5-tetrahydro-1H-benzo[b]azepin-1-yl)acetamido]ethyl}carbamate] | 92.5 ± 37.2 | 
CC(C)(C)OC(=O)NCCCCNC(=O)CN1C(=O)CCCc2ccccc21 [2f, tert-Butyl {4-[2-(2-oxo-2,3,4,5-tetrahydro-1H-benzo[b]azepin-1-yl)acetamido]butyl}carbamate] | 83.6 ± 8.7 | 
CC(C)(C)OC(=O)NC1CCN(C(=O)CN2C(=O)CCCc3ccccc32)CC1 [2g, tert-Butyl {1-[2-(2-oxo-2,3,4,5-tetrahydro-1H-benzo[b]azepin-1-yl)acetyl]piperidine-4-yl}carbamate] | 93.3 ± 6.1 | 
O=C(CN1C(=O)CCCc2ccccc21)N1CCOCC1 [2h, 1-(2-Morpholino-2-oxoethyl)-1,3,4,5-tetrahydro-2H-benzo[b]azepin-2-one] | 92.7 ± 9.2 | 
O=C(CN1C(=O)CCCc2ccccc21)N1CCCCC1 [2i, 1-[2-Oxo-2-(piperidin-1-yl)ethyl]-1,3,4,5-tetrahydro-2H-benzo[b]azepin-2-one] | 89.4 ± 4.6 | 
CCN(CC)C(=O)CN1C(=O)CCCc2ccccc21 [2k, N,N-Diethyl-2-(2-oxo-2,3,4,5-tetrahydro-1H-benzo[b]azepin-1-yl)acetamide] | 92.9 ± 6.4 | 
NCCNC(=O)CN1C(=O)CCCc2ccccc21 [2p, N-(2-Aminoethyl)-2-(2-oxo-2,3,4,5-tetrahydro-1H-benzo[b]azepin-1-yl)acetamide hydrochloride] | 82.4 ± 9.5 | 
CNCCNC(=O)CN1C(=O)CCCc2ccccc21 [2r, N-[2-(Methylamino)ethyl]-2-(2-oxo-2,3,4,5-tetrahydro-1H-benzo[b]azepin-1-yl)acetamide hydrochloride] | 88.9 ± 10.4 | 
NCCCCNC(=O)CN1C(=O)CCCc2ccccc21 [2s, N-(4-Aminobutyl)-2-(2-oxo-2,3,4,5-tetrahydro-1H-benzo[b]azepin-1-yl)acetamide hydrochloride] | 104 ± 5.3 | 
O=C(CN1C(=O)CCCc2ccccc21)NCCN1CCOCC1 [2t, N-(2-Morpholinoethyl)-2-(2-oxo-2,3,4,5-tetrahydro-1H-benzo[b]azepin-1-yl)acetamide hydrochloride] | 91 ± 3.9 | 71.2 ± 1.5
CN1CCN(CCNC(=O)CN2C(=O)CCCc3ccccc32)CC1 [2u, N-[2-(4-Methylpiperazin-1-yl)ethyl]-2-(2-oxo-2,3,4,5-tetrahydro-1H-benzo[b]azepin-1-yl)acetamide dihydrochloride] | 106 ± 9.8 | 85 ± 10.6
CN1CCN(C(=O)CN2C(=O)CCCc3ccccc32)CC1 [2v, 1-[2-(4-Methylpiperazin-1-yl)-2-oxoethyl]-1,3,4,5-tetrahydro-2H-benzo[b]azepin-2-one hydrochloride] | 98.2 ± 13.7 | 72.4 ± 0.3
CC(C)(C)OC(=O)N1CCN(CCNC(=O)CN2C(=O)C(C)(C)CCc3ccccc32)CC1 [3b, tert-Butyl 4-{2-[2-(3,3-dimethyl-2-oxo-2,3,4,5-tetrahydro-1H-benzo[b]azepin-1-yl)acetamido]ethyl}piperazine-1-carboxylate] | 107 ± 12.6 | 94.8 ± 2.5
CN(CCNC(=O)CN1C(=O)C(C)(C)CCc2ccccc21)C(=O)OC(C)(C)C [3c, tert-Butyl {2-[2-(3,3-dimethyl-2-oxo-2,3,4,5-tetrahydro-1H-benzo[b]azepin-1-yl)acetamido]ethyl}(methyl)carbamate] | 104 ± 7.1 | 
CNCCNC(=O)CN1C(=O)C(C)(C)CCc2ccccc21 [3e, 2-(3,3-Dimethyl-2-oxo-2,3,4,5-tetrahydro-1H-benzo[b]azepin-1-yl)-N-[2-(methylamino)ethyl]acetamide hydrochloride] | 99.8 ± 7.1 | 
CN(CCNC(=O)CN1C(=O)Cc2ccccc2-c2ccccc21)C(=O)OC(C)(C)C [4c, tert-Butyl N-methyl-{2-[2-(6-oxo-6,7-dihydro-5H-dibenzo[b,d]azepin-5-yl)acetamido]ethyl}carbamate] | 87.6 ± 4.6 | 
CO/N=C1\CCC(=O)N(CC(=O)NCCN2CCN(C(=O)OC(C)(C)C)CC2)c2ccccc21 [5b, tert-Butyl (E/Z)-4-(2-{2-[5-(methoxyimino)-2-oxo-2,3,4,5-tetrahydro-1H-benzo[b]azepin-1-yl]acetamido}ethyl)piperazine-1-carboxylate] | 97.8 ± 13.3 | 93 ± 9.3
O=C(O)CN1C(=O)Cc2ccccc2-c2ccccc21 [compound 19, 2-(6-Oxo-6,7-dihydro-5H-dibenzo[b,d]azepin-5-yl)acetic acid] | 97.8 ± 6.1 | 
CO/N=C1\CCC(=O)Nc2ccccc21 [compound 20, (E)-5-methoxyimino-1,3,4,5-tetrahydro-2H-benzo[b]azepin-2-one] | 102 ± 2.4 | 
CO/N=C1\CCC(=O)N(CC(=O)OC(C)(C)C)c2ccccc21 [compound 21, tert-Butyl (E/Z)-2-(5-(methoxyimino)-2-oxo-2,3,4,5-tetrahydro-1H-benzo[b]azepin-1-yl)acetate] | 92.4 ± 10.3 | 
CO/N=C1\CCC(=O)N(CC(=O)O)c2ccccc21 [compound 22, (E/Z)-2-(5-(Methoxyimino)-2-oxo-2,3,4,5-tetrahydro-1H-benzo[b]azepin-1-yl)acetic acid] | 96.7 ± 5.2 | 
